The values below come from patent US10272117B2, “Methods of using an activator of cereblon for neural cell expansion and the treatment of central nervous system disorders” (Celgene Corporation, priority 2014, dated 2019).

This data set relates to zebrafish embryos. Briefly: Brain size, morphology and volume of zebrafish embryos (microscopy, MRI). The format is in vivo. The note with it: for volume of the whole brain compared to untreated fish: MRI; for head size compared to untreated embryos: microscopic pictures; for brain size: day 2. The procedure:
An aqueous solution of a 25-mer antisense morpholino oligonucleotide (AMO, Gene Tools, LLC) corresponding to the vicinity of the translation initiation codon in the cDNA sequence of the gene to be knocked down ([…] injection conditions were the same as those used for RNA) was injected into the embryos at the 1-cell stage. The sequence of AMO used for the CRBN gene knockdown is 5′-[…]-3′ (SEQ ID NO: 3). The sequence of AMO used for the Lhx2 gene knockdown is 5′-[…]-3′ (SEQ ID NO:4). The sequence of AMO used for the BRD7 gene knockdown is 5′-[…]-3′ (SEQ ID NO:1). The sequence of AMO used for the Ikaros gene knockdown is 5′-[…]-3′ (SEQ ID NO:2). […]
In order to examine the effect of antagonists of BRD7 on brain growth, BRD7 was knocked down or over-expressed in zebrafish embryos. Knockdown of BRD7 was performed by microinjection of antisense morpholino oligonucleotides (AMO). Overexpression of BRD7 was performed by microinjection of synthesized capped mRNA. AMO or capped mRNA was introduced into one-cell stage embryos by using a nitrogen gas-pressure microinjector IM 300 (Narishige). Conditions for microinjection were as follows: gas pressure was about 15 picosiemens; release period was about 30 to about 50 milliseconds per single injection; concentrations of AMOs and capped mRNA were 400 ng/μl and 250 ng/μl in nuclease-free water, respectively. Capped mRNAs were synthesized in vitro using the mMESSAGE mMachine® in vitro transcription kit (Ambion) from cDNAs cloned into pCS2+ plasmids.
The brains of the embryos were examined for morphology and volume by magnetic resonance imaging (MRI). FIGS. 9A, 9B, and 9C show microscopic pictures of the untreated, the BRD7-knockdown, and the BRD7-overexpressing zebrafish embryos, respectively. FIGS. 9D, 9E, and 9F show fluorescent microscopic pictures of the brain regions of the untreated, the BRD7-knockdown, and the BRD7-overexpressing zebrafish embryos, respectively. As shown in these figures, the BRD7-knockdown zebrafish embryos had bigger heads than the untreated embryos. […] The volume of the whole brain of the BRD7-knockdown fish was much bigger than that of the untreated fish, while for the BRD7-overexpressing fish, the brain volume was smaller.
In order to examine the effect of antagonists of Ikaros on brain growth, Ikaros was knocked down or over-expressed in zebrafish embryos. Knockdown of Ikaros was performed by microinjection of antisense morpholino oligonucleotides (AMO). Overexpression of Ikaros was performed by injection of synthesized capped mRNA. AMO or capped mRNA was introduced into one-cell stage embryos by using a nitrogen gas-pressure microinjector IM 300 (Narishige). Conditions for microinjection were as follows: gas pressure was about 15 picosiemens; release period was about 30 to about 50 milliseconds per single injection; concentrations of AMOs and capped mRNA were 400 ng/μl and 250 ng/μl in nuclease-free water, respectively. Capped mRNAs were synthesized in vitro using the mMESSAGE mMachine® in vitro transcription kit (Ambion) from cDNAs cloned into pCS2+ plasmids.
The brains of the embryos were examined for morphology and volume by magnetic resonance imaging (MRI). FIGS. 15A, 15B, and 15C show microscopic pictures of untreated, Ikaros-knockdown, and Ikaros-overexpressing zebrafish embryos at 55 hpf, respectively. As shown in these figures, the Ikaros-knockdown fish had bigger heads than the untreated embryos. […] The volume of the whole brain of the Ikaros-knockdown fish was much bigger than that of the untreated fish, while for the Ikaros-overexpressing fish, the brain volume was smaller.

As to “5′-TGTGTTTCTTGTGCTTTTTGCCCAT-3′ (all phosphorodiamidate morpholino (PMO)) [BRD7-knockdown, 25-mer antisense morpholino oligonucleotide (AMO) used for the BRD7 gene knockdown]”, the “volume of the whole brain compared to untreated fish” value is reported as “much bigger” and the “head size compared to untreated embryos” value is on record as “bigger heads”.

On to “5′-AGAGCTGTAGCTGGTTCCCCATTTC-3′ (all phosphorodiamidate morpholino (PMO)) [CRBN-knockdown, 25-mer antisense morpholino oligonucleotide (AMO) used for the CRBN gene knockdown, reference compound]”, for which the brain size entry is on record as “smaller brains”.

Turning to “5′-TTCCTGTGCCTCCTCAGTCTCCATC-3′ (all phosphorodiamidate morpholino (PMO)) [Ikaros-knockdown, 25-mer antisense morpholino oligonucleotide (AMO) used for the Ikaros gene knockdown]”, the “volume of the whole brain compared to untreated fish” value is recorded as “much bigger”, the brain size entry is reported as “enlarged brains” and the “head size compared to untreated embryos” value was “bigger heads”. Also, under “22 hpf”, the brain development entry is given as “macrocephaly”.
